Target: human PSMA (Homo sapiens (Human), UniProt Q04609)
Assay: Enzymatic assay for in vitro evaluation of PSMA inhibitors (fluorescent assay of PSMA activity, NAAG substrate, OPA detection of glutamate)
Format: biochemical

Sequence of human PSMA (Q04609 whole entry): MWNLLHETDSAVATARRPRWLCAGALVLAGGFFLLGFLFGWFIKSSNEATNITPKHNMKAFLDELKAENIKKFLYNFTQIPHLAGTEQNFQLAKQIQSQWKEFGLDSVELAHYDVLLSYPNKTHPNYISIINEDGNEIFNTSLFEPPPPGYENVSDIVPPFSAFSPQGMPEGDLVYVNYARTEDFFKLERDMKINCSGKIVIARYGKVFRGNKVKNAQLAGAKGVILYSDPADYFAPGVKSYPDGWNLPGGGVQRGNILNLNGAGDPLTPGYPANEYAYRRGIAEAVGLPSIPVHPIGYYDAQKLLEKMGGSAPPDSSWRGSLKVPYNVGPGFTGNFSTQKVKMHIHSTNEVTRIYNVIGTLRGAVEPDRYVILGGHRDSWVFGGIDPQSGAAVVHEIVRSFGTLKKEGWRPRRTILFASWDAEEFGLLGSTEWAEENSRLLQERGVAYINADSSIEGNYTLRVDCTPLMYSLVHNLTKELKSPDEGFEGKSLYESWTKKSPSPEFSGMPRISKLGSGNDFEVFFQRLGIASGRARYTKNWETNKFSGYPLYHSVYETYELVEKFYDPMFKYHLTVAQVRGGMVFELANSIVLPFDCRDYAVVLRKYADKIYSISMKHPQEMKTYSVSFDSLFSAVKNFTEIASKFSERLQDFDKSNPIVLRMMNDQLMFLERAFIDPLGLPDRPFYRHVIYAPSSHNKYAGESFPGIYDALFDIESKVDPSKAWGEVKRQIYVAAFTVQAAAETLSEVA

SMILES	Ki [nM]	PSMA Blkg % (1.0 μM) [%]
O=C(O)CC[C@H](NC(=O)NC(CC1CCN(C(=O)CCCc2ccc(-n3cc(CCCF)nn3)cc2)CC1)C(=O)O)C(=O)O (stereo partly drawn) [P230, (2S)-2-(3-(1-Carboxy-2-(1-(4-(4-(4-(3-fluoropropyl)-1H-1,2,3-triazol-1-yl)phenyl)butanoyl)-piperidin-4-yl)ethyl)ureido)pentanedioic Acid]	13	95
O=C(O)CCC(C(=O)O)N1C(=O)N[C@@H](CC2CCN(C(=O)CCCc3ccc(-n4cc(CCCF)nn4)cc3)CC2)C1=O (some centres unmarked) [P231]		63
O=C(O)CC[C@H](NC(=O)N[C@@H](CCCCNc1nc(-c2ccc(F)cc2)cs1)C(=O)O)C(=O)O [P232, (S)-2-(3-((S)-1-Carboxy-5-(4-(4-fluorophenyl)thiazol-2-ylamino)pentyl)ureido)pentanedioic Acid]		96
O=C(O)CC[C@H](NC(=O)N[C@@H](CCCCNc1nc(-c2cccc([N+](=O)[O-])c2)cs1)C(=O)O)C(=O)O [P233, (S)-2-(3-((S)-1-Carboxy-5-(4-(3-nitrophenyl)thiazol-2-ylamino)pentyl)ureido)pentanedioic Acid]		96
O=C(O)CC[C@H](NC(=O)N[C@@H](CCCCNc1nc(-c2cc3ccccc3s2)cs1)C(=O)O)C(=O)O [P234, (S)-2-(3-((S)-5-(4-(Benzo[b]thiophen-2-yl)thiazol-2-ylamino)-1-carboxypentyl)ureido) pentanedioic Acid]		86
O=C(O)CC[C@H](NC(=O)N[C@@H](CCCCNc1nc(-c2ccc3c(c2)OCO3)cs1)C(=O)O)C(=O)O [P235, (S)-2-(3-((S)-5-(4-(Benzo[d][1,3]dioxol-5-yl)thiazol-2-ylamino)-1-carboxypentyl)ureido)-pentanedioic Acid]	< 0.3	100
O=C(O)CC[C@H](NC(=O)N[C@@H](CCCCNc1nc(-c2ccnc(Cl)c2)cs1)C(=O)O)C(=O)O [P236, (S)-2-(3-((S)-1-Carboxy-5-(4-(2-chloropyridin-4-yl)thiazol-2-ylamino)pentyl)ureido)-pentanedioic Acid]		99
O=C(O)CC[C@H](NC(=O)N[C@@H](Cc1ccc(NC(=O)N2CCN(C(=O)Cn3cc(CCCF)nn3)CC2)cc1)C(=O)O)C(=O)O [P237, (S)-2-(3-((S)-1-Carboxy-2-(4-(4-(2-(4-(3-fluoropropyl)-1H-1,2,3-triazol-1-yl)acetyl)piperazine-1-carboxamido)phenyl)ethyl)ureido)pentanedioic Acid]	3.8	100
O=C(O)CC[C@H](NC(=O)N[C@@H](Cc1ccc(NC(=O)c2cc(C(=O)Nc3ccc(C[C@H](NC(=O)N[C@@H](CCC(=O)O)C(=O)O)C(=O)O)cc3)cc(-n3cc(CCCF)nn3)c2)cc1)C(=O)O)C(=O)O [P238, (2S,2′S)-2,2′-(((((1S,1′S)-(((5-(4-(3-Fluoropropyl)-1H-1,2,3-triazol-1-yl)isophthaloyl)bis(azanediyl))bis(4,1-phenylene))bis(1-carboxyethane-2,1-diyl))bis(azanediyl))bis(carbonyl))bis(azanediyl))dipentanedioic Acid]	< 0.3	100
O=C(O)CC[C@H](NC(=O)C[C@@H](NC(=O)CCNC(=O)OCc1ccccc1)C(=O)O)C(=O)O [P239, (9R,13S)-3,7,11-Trioxo-1-phenyl-2-oxa-4,8,12-triazapentadecane-9,13,15-tricarboxylic Acid]		33
O=C(O)CC[C@H](NC(=O)N[C@@H](Cc1ccc(Nc2nc(-c3ccc(-n4cc(CCCF)nn4)cc3)cs2)cc1)C(=O)O)C(=O)O [P240]	28	94
O=C(O)CC[C@H](NC(=O)N[C@@H](Cc1ccc(NC(=O)c2ccc(F)cc2)cc1)C(=O)O)C(=O)O [P241]	0.38	94
O=C(O)CC[C@H](NC(=O)N[C@@H](CCCCNc1cc(OCc2cn(CCF)nn2)ccc1[N+](=O)[O-])C(=O)O)C(=O)O [P242, (S)-2-(3-((S)-1-Carboxy-5-((5-((1-(2-fluoroethyl)-1H-1,2,3-triazol-4-yl)methoxy)-2-nitrophenyl)amino)pentyl)ureido)pentanedioic Acid]	0.07	99
O=C(O)CC[C@H](NC(=O)C[C@@H](NC(=O)CCNC(=O)Cn1cc(CCCF)nn1)C(=O)O)C(=O)O [P243, (S)-2-((R)-3-Carboxy-3-(3-(2-(4-(3-fluoropropyl)-1H-1,2,3-triazol-1-yl)acetamido)propanamido)-propanamido)pentanedioic Acid]		5
O=C(O)CC[C@H](NC(=O)N[C@@H](CCCCNc1nc(-c2cccc(NC(=O)Cn3cc(CCCF)nn3)c2)cs1)C(=O)O)C(=O)O [P244, (S)-2-(3-((S)-1-Carboxy-5-(4-(3-(2-(4-(3-fluoropropyl)-1H-1,2,3-triazol-1-yl)acetamido)phenyl)thiazol-2-ylamino)pentyl)ureido)pentanedioic Acid]	0.38	98
O=C(O)CC[C@H](NC(=O)C[C@@H](NC(=O)CCNC(=O)c1ccc(-n2cc(CCCF)nn2)cc1)C(=O)O)C(=O)O [P245, (S)-2-((R)-3-Carboxy-3-(3-(4-(4-(3-fluoropropyl)-1H-1,2,3-triazol-1-yl)benzamido)propanamido)-propanamido)pentanedioic Acid]	156	62
O=C(O)CC[C@H](NC(=O)N[C@@H](CCCCNC(=O)c1cc(C(=O)NCCCC[C@H](NC(=O)N[C@@H](CCC(=O)O)C(=O)O)C(=O)O)cc(-n2cc(CCCF)nn2)c1)C(=O)O)C(=O)O [P246, (2S,2′S)-2,2′-(((((1S,1′S)-((5-(4-(3-Fluoropropyl)-1H-1,2,3-triazol-1-yl)isophthaloyl)bis(azanediyl))bis(1-carboxypentane-5,1-diyl))bis(azanediyl))bis(carbonyl))bis(azanediyl))dipentanedioic Acid]	0.16	100
O=C(O)CC[C@H](NC(=O)N[C@@H](CCCCn1c(=O)[nH]c2ccc(OCc3cn(CCF)nn3)cc21)C(=O)O)C(=O)O [P247, (S)-2-(3-((S)-1-Carboxy-5-(6-((1-(2-fluoroethyl)-1H-1,2,3-triazol-4-yl)methoxy)-2-oxo-2,3-dihydro-1H-benzo[d]imidazol-1-yl)pentyl)ureido)pentanedioic Acid]	0.63	100
O=C(O)CC[C@H](NC(=O)N[C@@H](Cc1ccc(NC(=O)N2CCN(C(=O)c3ccc(-n4cc(CCCF)nn4)cc3)CC2)cc1)C(=O)O)C(=O)O [P248, (S)-2-(3-((S)-1-Carboxy-2-(4-(4-(4-(4-(3-fluoropropyl)-1H-1,2,3-triazol-1-yl)benzoyl)piperazine-1-carboxamido)phenyl)ethyl)ureido)pentanedioic Acid]	3.4	100
O=C(O)CC[C@H](NC(=O)N[C@@H](CC1CCN(C(=S)Nc2ccc(-n3cc(CCCF)nn3)cc2)CC1)C(=O)O)C(=O)O [P250, (S)-2-(3-((S)-1-Carboxy-2-(1-((4-(4-(3-fluoropropyl)-1H-1,2,3-triazol-1-yl)phenyl)carbamothioyl)piperidin-4-yl)ethyl)ureido)pentanedioic Acid]	4.1	96
O=C(O)CC[C@H](NC(=O)N[C@@H](CCCCNc1cc(OCCOCCOCCn2cc(CCCF)nn2)ccc1[N+](=O)[O-])C(=O)O)C(=O)O [P251, (S)-2-(3-((S)-1-Carboxy-5-((5-(2-(2-(2-(4-(3-fluoropropyl)-1H-1,2,3-triazol-1-yl)ethoxy)ethoxy)ethoxy)-2-nitrophenyl)amino)pentyl)ureido)pentanedioic Acid]	0.34	100
O=C(O)CCC(NC(=O)C[C@@H](NC(=O)CCNC(=O)c1cc(C(=O)NCCC(=O)N[C@H](CC(=O)NC(CCC(=O)O)C(=O)O)C(=O)O)cc(-n2cc(CCCF)nn2)c1)C(=O)O)C(=O)O (stereo partly drawn) [P252, (2S,2′S)-2,2′-(((3R,3′R)-3,3′-((3,3′-((5-(4-(3-Fluoropropyl)-1H-1,2,3-triazol-1-yl)isophthaloyl)bis(azanediyl))bis(propanoyl))bis(azanediyl))bis(3-carboxypropanoyl))bis(azanediyl))dipentanedioic Acid]	94	59
O=C(O)CC[C@H](NC(=O)N[C@@H](Cc1ccc(NC(=O)c2cc(C(=O)O)cc(-n3cc(CCCF)nn3)c2)cc1)C(=O)O)C(=O)O [P253, (S)-2-(3-((S)-1-Carboxy-2-(4-(3-carboxy-5-(4-(3-fluoropropyl)-1H-1,2,3-triazol-1-yl)benzamido)phenyl)ethyl)ureido)pentanedioic Acid]	0.2	96
O=C(O)CC[C@H](NC(=O)N[C@@H](CCCCNc1nc(-c2cccc(NC(=O)CCOCCOCCOCCOCCNC(=O)Cn3cc(CCCF)nn3)c2)cs1)C(=O)O)C(=O)O [P254, (S)-2-(3-((S)-1-Carboxy-5-(4-(3-(1-(4-(3-fluoropropyl)-1H-1,2,3-triazol-1-yl)-2-oxo-6,9,12,15-tetraoxa-3-azaoctadecanamido)phenyl)thiazol-2-ylamino)pentyl)ureido)-pentanedioic Acid]	0.4	95
C[C@@](Cc1cccc(NC(=O)CCCn2cc(CCCF)nn2)c1)(NC(=O)N[C@@H](CCC(=O)O)C(=O)O)C(=O)O [P255, (S)-2-(3-((S)-2-Carboxy-1-(3-(4-(4-(3-fluoropropyl)-1H-1,2,3-triazol-1-yl)butanamido)-phenyl)propan-2-yl)ureido)pentanedioic Acid]		62
C[C@@](Cc1cccc(NC(=O)Cn2cc(CCCF)nn2)c1)(NC(=O)N[C@@H](CCC(=O)O)C(=O)O)C(=O)O [P256, (S)-2-(3-((S)-2-Carboxy-1-(3-(2-(4-(3-fluoropropyl)-1H-1,2,3-triazol-1-yl)acetamido)-phenyl)propan-2-yl)ureido)pentanedioic Acid]		27
O=C(O)CCC(C(=O)O)N1C(=O)N[C@@H](CC2CCN(C(=O)c3ccc(-n4cc(CCCF)nn4)cc3)CC2)C1=O (stereo partly drawn) [P257, 2-((S)-4-((1-(4-(4-(3-Fluoropropyl)-1H-1,2,3-triazol-1-yl)benzoyl)piperidin-4-yl)methyl)-2,5-dioxoimidazolidin-1-yl)pentanedioic Acid]		5

From patent publication US10894807B2 (Siemens Medical Solutions USA, Inc., priority 2011, dated 2021)
